Assay [1] has as its system Kocuria rhizophila NBRC 12708. Here is the method:
(§1) Previously, three theonellapeptolide members capped with a unique acyl group at their N-termini such as methylsulfinylacetyl, methylsulfanylacetyl, and acetyl were isolated by Tsuda et al. from Okinawan marine sponge Theonella sp.. Furthermore, the antibacterial activity of these variants was evaluated against four bacterial and six fungal strains. […] To the best of our knowledge, there is no report on the antibacterial activity of theonellapeptolides with methoxyacetyl group. This encouraged us to investigate the antibacterial activity of 1–6 against the Gram-negative bacterium Escherichia coli JW5503 and the Gram-positive bacteria Bacillus cereus NBRC 15305 and Kocuria rhizophila NBRC 12708.
(§2) After incubation for 22 h (30 °C), the obtained optical density was recorded using Tecan infinite® M200 plate reader at 600 nm to determine percent growth inhibition.

The subject of another assay is Escherichia coli JW5503. Here is the method:
as §1, §2

The subject of assay [2] is Bacillus cereus NBRC 15305. On the procedure: as §1, §2
Assay [3] concerns HepG2 (human liver cancer cells). As to conditions: 24 h. On the procedure:
(§3) Finally, the anti-austerity activity on two other different cancer cell lines was studied. Preferential cytotoxicity was assessed in a nutrient-deprived medium. Esumi et al. hypothesized that tolerance to nutrient deprivation as well as angiogenesis might be an important factor in tumor progression under hypovascular condition.
(§4) Briefly, MIA PaCa-2, HepG2 and MCF-7 Cells (2 × 10^4 cells/well) were seeded in 96-well plates and incubated in fresh DMEM. The cells were washed with Dulbecco’s phosphate-buffered saline (PBS) before the medium was replaced with DMEM or NDM containing serial dilutions of the test samples. After 24 h of incubation, the cells were washed with PBS, and 100 μL of DMEM containing 10% WST-8 cell counting kit solution was added to each well. After 3 h of incubation, the absorbance was measured at 450 nm. Cell viability was calculated from the mean values for three wells. The preferential cytotoxicity was expressed as the concentration at which 50% of cells died preferentially in NDM (PC50).

Assay [4] relates to MCF-7 (human breast cancer cells). The following applies: 24 h. Here is the method:
as §3, §4

Assay [5] has as its system human pancreatic cancer cell line MIA PaCa-2. The following applies: 24 h. On the procedure:
Data are presented as preferential cytotoxicity (PC50) values, which represent the concentration that kills 50% of cancer cells in a nutrient-deprived medium (NDM) without any toxicity in a nutrient-rich medium DMEM (Dulbecco’s Modified Eagle Medium).
as §4
Pancreatic cancer cells (MIA PaCa-2 cells) were kindly provided by Dr. Suresh Awale, an Associate Professor at Institute of Natural Medicine, University Toyama, Toyama, Japan. MIA PaCa-2 (RBRC-RCB2094), human pancreatic cancer cell lines were purchased from Riken BRC cell bank.

[6] abbreviates: Kocuria rhizophila NBRC 12708, 96-well microbroth dilution (CLSI), triplicate, 22 h, 30 °C, OD 600 nm.
Where [7] appears, read: Escherichia coli JW5503, 96-well microbroth dilution (CLSI), triplicate, 22 h, 30 °C, OD 600 nm.
Setting [8] is: Bacillus cereus NBRC 15305, 96-well microbroth dilution (CLSI), triplicate, 22 h, 30 °C, OD 600 nm.
[9] abbreviates: read-out: IC50 in DMEM, HepG2, nutrient-rich DMEM, WST-8, absorbance 450 nm, mean of three wells.
The mark [10] stands for this setting: read-out: PC50 in NDM, HepG2, preferential cytotoxicity, nutrient-deprived medium (NDM), WST-8, mean of three wells.
[11] abbreviates: read-out: IC50 in DMEM, MCF7, nutrient-rich DMEM, WST-8, absorbance 450 nm, mean of three wells.
Setting [12] is: read-out: PC50 in NDM, MCF7, preferential cytotoxicity, nutrient-deprived medium (NDM), WST-8, mean of three wells.
Where [13] appears, read: read-out: IC50 in DMEM, MIA PaCa-2, nutrient-rich DMEM, WST-8, absorbance 450 nm, mean of three wells.
[14] abbreviates: read-out: PC50 in NDM, MIA PaCa-2, preferential cytotoxicity, nutrient-deprived medium (NDM), WST-8, mean of three wells.

From publication PMC9697519, “New Theonellapeptolides from Indonesian Marine Sponge Theonella swinhoei as Anti-Austerity Agents” (Marine Drugs, 2022) come the findings set out here.

Where two headings read alike, the source gives them in different places. *1 amine or outer side, *2 acyl side, *3 side chain or, on linkers, in order; H or OH if unused. Where a SMILES comes first, the peptide text is derived from it. Bridges are numbered along the chain shown (N, C = ends). [ ]: non-standard residue; d: D form. The star is where a group is joined. dNMeaIle = CC[C@H](C)[C@@H](NC)C(=O)O; d(aIle) = CC[C@H](C)[C@@H](N)C(=O)O; NMeI = CC[C@H](C)[C@H](NC)C(=O)O; NMeβAla = CN(CCC(=O)[*:2])[*:1]; dNMeL = CN[C@H](CC(C)C)C(=O)O; dNMeV = CN[C@@H](C(=O)O)C(C)C; NMeV = CN[C@H](C(=O)O)C(C)C; Methoxyacetyl = COCC(=O)*; NMeA = CN[C@@H](C)C(=O)O; βAla = NCCC(=O)O

Consider `CC[C@H](C)[C@H]1NC(=O)CCNC(=O)[C@@H](C(C)C)NC(=O)[C@@H](CC(C)C)NC(=O)CCNC(=O)[C@@H](NC(=O)[C@@H](CC(C)C)N(C)C(=O)[C@@H](NC(=O)COC)C(C)C)[C@@H](C)OC(=O)[C@@H]([C@@H](C)CC)N(C)C(=O)[C@@H](CC(C)C)NC(=O)CCNC(=O)[C@H](C)NC(=O)[C@H](C(C)C)N(C)C1=O` [Compound 2, theonellapeptolide IIa] (Methoxyacetyl-V[dNMeL]T[βAla][dL][dV][βAla][d(aIle)][NMeV]A[βAla][dL][dNMeaIle]; ester 3-C), for which, in assay [1] (setting [6]), the “MIC, KR” value was greater than 66 µM. Also, the “MIC, EC” value against Escherichia coli JW5503 (setting [7]) is reported as greater than 66 µM. In addition, in assay [2] (setting [8]), the “MIC, BC” value is greater than 66 µM. Further, the IC50 in assay [3] (setting [9]) is greater than 100 µM; in assay [3] (setting [10]) it was greater than 100 µM; in assay [4] (setting [11]), greater than 100 µM; in assay [4] (setting [12]), greater than 100 µM; in assay [5] (setting [13]) it was greater than 100 µM; in assay [5] (setting [14]), 33.4 µM.
Turning to `CC[C@H](C)[C@H]1C(=O)NCCC(=O)N[C@H]([C@@H](C)CC)C(=O)N(C)[C@@H](C(C)C)C(=O)N[C@@H](C)C(=O)NCCC(=O)N[C@H](CC(C)C)C(=O)N(C)[C@H]([C@@H](C)CC)C(=O)O[C@H](C)[C@H](NC(=O)[C@@H](CC(C)C)N(C)C(=O)[C@@H](NC(=O)COC)C(C)C)C(=O)N(C)CCC(=O)N[C@H](CC(C)C)C(=O)N1C` [Compound 5, theonellapeptolide IIe] (Methoxyacetyl-V[dNMeL]T[NMeβAla][dL][NMeI][βAla][d(aIle)][NMeV]A[βAla][dL][dNMeaIle]; ester 3-C), the “MIC, KR” value in assay [1] (NBRC 12708, 22 h) is given as greater than 66 µM. Moreover, the “MIC, EC” value with Escherichia coli JW5503 (JW5503, 22 h) is reported as greater than 66 µM. For the same compound, in assay [2] (NBRC 15305, 22 h), the “MIC, BC” value is reported as greater than 66 µM. Besides, the IC50 is greater than 100 µM in assay [3] (setting [9]); greater than 100 µM in assay [3] (setting [10]); greater than 100 µM in assay [4] (setting [11]); greater than 100 µM in assay [4] (setting [12]); 40.4 µM in assay [5] (setting [13]); 3.5 µM in assay [5] (setting [14]).
In the case of `CC[C@H](C)[C@H]1NC(=O)CCNC(=O)[C@@H](C(C)C)N(C)C(=O)[C@@H](CC(C)C)NC(=O)CCNC(=O)[C@@H](NC(=O)[C@@H](CC(C)C)N(C)C(=O)[C@@H](NC(=O)COC)C(C)C)[C@@H](C)OC(=O)[C@@H]([C@@H](C)CC)N(C)C(=O)[C@@H](CC(C)C)NC(=O)CCNC(=O)[C@H](C)NC(=O)[C@H](C(C)C)N(C)C1=O` [Compound 1, theonellapeptolide IIb] (Methoxyacetyl-V[dNMeL]T[βAla][dL][dNMeV][βAla][d(aIle)][NMeV]A[βAla][dL][dNMeaIle]; ester 3-C), the “MIC, KR” value in assay [1] (NBRC 12708, 22 h) is listed as greater than 66 µM. Also, the “MIC, EC” value against Escherichia coli JW5503 (setting [7]) is reported as greater than 66 µM. For the same compound, the “MIC, BC” value in assay [2] (NBRC 15305, 22 h) is listed as greater than 66 µM. The IC50 in assay [3] (setting [9]) is greater than 100 µM; in assay [3] (setting [10]), greater than 100 µM; in assay [4] (setting [11]), greater than 100 µM; in assay [4] (setting [12]) it was greater than 100 µM; in assay [5] (setting [13]), greater than 100 µM; in assay [5] (setting [14]), 42.8 µM.
With `CC[C@H](C)[C@H]1NC(=O)CCNC(=O)[C@H](C(C)C)N(C)C(=O)[C@@H](CC(C)C)NC(=O)CCN(C)C(=O)[C@@H](NC(=O)[C@@H](CC(C)C)N(C)C(=O)[C@@H](NC(=O)COC)C(C)C)[C@@H](C)OC(=O)[C@@H]([C@@H](C)CC)N(C)C(=O)[C@@H](CC(C)C)NC(=O)CCNC(=O)[C@H](C)NC(=O)[C@H](C(C)C)N(C)C1=O` [Compound 3, theonellapeptolide IIc] (Methoxyacetyl-V[dNMeL]T[NMeβAla][dL][NMeV][βAla][d(aIle)][NMeV]A[βAla][dL][dNMeaIle]; ester 3-C), the “MIC, KR” value in assay [1] (setting [6]) is greater than 66 µM. For the same compound, in the assay with Escherichia coli JW5503 (setting [7]), the “MIC, EC” value was greater than 66 µM. Moreover, the “MIC, BC” value in assay [2] (setting [8]) is on record as greater than 66 µM. Moreover, the IC50 was greater than 100 µM in assay [3] (setting [9]); greater than 100 µM in assay [3] (setting [10]); greater than 100 µM in assay [4] (setting [11]); greater than 100 µM in assay [4] (setting [12]); 73.2 µM in assay [5] (setting [13]); 10 µM in assay [5] (setting [14]).
Regarding `CC[C@H](C)[C@H]1C(=O)NCCC(=O)N[C@H]([C@@H](C)CC)C(=O)N(C)[C@@H](C(C)C)C(=O)N(C)[C@@H](C)C(=O)NCCC(=O)N[C@H](CC(C)C)C(=O)N(C)[C@H]([C@@H](C)CC)C(=O)O[C@H](C)[C@H](NC(=O)[C@@H](CC(C)C)N(C)C(=O)[C@@H](NC(=O)COC)C(C)C)C(=O)NCCC(=O)N[C@H](CC(C)C)C(=O)N1C` [Compound 6, theonellapeptolide Id] (Methoxyacetyl-V[dNMeL]T[βAla][dL][NMeI][βAla][d(aIle)][NMeV][NMeA][βAla][dL][dNMeaIle]; ester 3-C), in assay [1] (NBRC 12708, 22 h), the “MIC, KR” value was greater than 66 µM. The “MIC, EC” value against Escherichia coli JW5503 (JW5503, 22 h) is reported as greater than 66 µM. Besides, the “MIC, BC” value in assay [2] (NBRC 15305, 22 h) is greater than 66 µM. Besides, the IC50 was greater than 100 µM in assay [3] (setting [9]); greater than 100 µM in assay [3] (setting [10]); greater than 100 µM in assay [4] (setting [11]); greater than 100 µM in assay [4] (setting [12]); 42.7 µM in assay [5] (setting [13]); 8.2 µM in assay [5] (setting [14]).
